Substitutions are numbered along the chain they refer to.
Legend:
GIPR [1] = target: T1, GIPR (Homo sapiens, UniProt P48546, Y36A); assay: cAMP accumulation assay (LANCE Ultra cAMP kit), GIPR WT, mutant or modified constructs; assay type: cell-based; design: acylated tirzepatide to the full-length or modified; Flag; expressed in transfected cells; host or cells: HEK293T; details: GIPR Y36A, HEK293T; for EC50: read-out: cAMP pEC50 (converted)
T1 sequence (P48546 22-466 Y36A): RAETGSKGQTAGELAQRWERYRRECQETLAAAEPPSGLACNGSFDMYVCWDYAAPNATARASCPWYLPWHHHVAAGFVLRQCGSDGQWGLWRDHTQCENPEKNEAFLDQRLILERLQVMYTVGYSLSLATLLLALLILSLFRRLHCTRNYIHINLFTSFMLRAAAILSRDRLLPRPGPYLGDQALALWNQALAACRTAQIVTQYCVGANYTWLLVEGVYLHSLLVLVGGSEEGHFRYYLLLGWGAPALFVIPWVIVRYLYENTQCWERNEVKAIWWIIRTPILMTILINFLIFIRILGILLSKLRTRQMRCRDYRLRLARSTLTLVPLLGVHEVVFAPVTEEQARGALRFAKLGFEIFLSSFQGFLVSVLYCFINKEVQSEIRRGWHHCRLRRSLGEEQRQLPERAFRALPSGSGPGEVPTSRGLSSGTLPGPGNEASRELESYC
Experimental: Human embryonic kidney 293 cells containing SV40 large T-antigen (HEK293T) were cultured in DMEM (Gibco) supplemented with 10% (v/v) fetal bovine serum (FBS, Gibco), 1 mM sodium pyruvate (Gibco) and 100 units/mL penicillin and 100 μg/mL streptomycin at 37 °C in 5% CO2. Chinese hamster ovary (CHO-K1) cells were cultured in F-12 (Gibco) containing 10% FBS, 100 units/mL penicillin and 100 μg/mL streptomycin at 37 °C in 5% CO2. For cAMP and receptor expression assays, HEK293T cells were seeded into 6-well cell culture plates at a density of 7 × 10^5 cells per well. After overnight incubation, cells were transfected with GIPR, GLP-1R or GCGR construct using Lipofectamine 2000 or Lipofectamine 3000 transfection reagent (Invitrogen). For whole-cell binding assay, CHO-K1 cells were seeded into 96-well fibronectin-treated cell culture plates at a density of 3 × 10^4 cells per well. After overnight incubation, cells were transfected with GIPR, GLP-1R or GCGR construct using Lipofectamine 2000 transfection reagent (Invitrogen). Following 24 h culturing, the transfected cells were ready for use.
A BRIL fusion protein was added at the N-terminal of the ECD with a TEV protease site and 2GSA linker between them. C-terminal 45 amino acids (Q422-C466) of the receptor were truncated. LgBiT was added at the end of helix 8 with a 15-amino acid (15AA) polypeptide linker in between, followed by a TEV protease cleavage site and an OMBP-MBP tag. […] The construct and various mutants of human GIPR were cloned into pcDNA3.1 vector for cAMP accumulation and whole-cell binding assays.
For GIPR, GLP-1R and GCGR, multi-targeting agonist stimulated cAMP accumulation was measured by a LANCE Ultra cAMP kit (PerkinElmer). After 24 h culture, the transfected cells were seeded into 384-well microtiter plates at a density of 3,000 cells per well in HBSS supplemented with 5 mM HEPES, 0.1% (w/v) BSA or 0.1% (w/v) casein and 0.5 mM 3-isobutyl-1-methylxanthine. The cells were stimulated with different concentrations of peptide agonists for 40 min at RT. Eu-cAMP tracer and ULight^TM-anti-cAMP were then diluted by cAMP detection buffer and added to the plates separately to terminate the reaction. Plates were incubated at RT for 1 h and the fluorescence intensity measured at 620 nm and […] by an EnVision multilabel plate reader (PerkinElmer).

GIPR [2] = target: T2, GIPR (Homo sapiens, UniProt P48546, D191A); assay: Whole-cell binding assay, competition with 125I-GIP1-42; design: acylated tirzepatide to the full-length or modified; Flag; expressed in transfected cells; details: GIPR D191A, CHO-K1
T2 sequence (P48546 22-466 D191A): T1 sequence (P48546 22-466 Y36A) with A15Y, D170A
In short: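 Transiently transfected CHO-K1 cells expressing WT or mutant GIPR were washed in F-12 with 0.1% BSA or 0.1% casein and 33 mM HEPES, then incubated 2 h at 37 °C. After ice-cold PBS washes, cells were lysed and bound radioactivity counted (CPM).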

Row | Structure (SMILES) | EC50 (GIPR [1]) [nM] | Emax (GIPR [1]; HEK-293T) [%] | binding Span (GIPR [2]) [% WT] | IC50 (GIPR [2]; read-out: binding pIC50 (converted)) [nM] | binding pIC50 (GIPR [2])
1 | CCCCCCCCCCCCCCCC(=O)N[C@@H](CCC(=O)NCCCC[C@H](NC(=O)[C@H](CC(=O)O)NC(=O)[C@H](CO)NC(=O)[C@@H](NC(=O)[C@H](Cc1ccccc1)NC(=O)[C@@H](NC(=O)CNC(=O)[C@H](CCC(N)=O)NC(=O)C(C)(C)NC(=O)[C@@H](N)Cc1c[nH]cn1)[C@@H](C)O)[C@@H](C)O)C(=O)N[C@@H](CO)C(=O)N[C@@H](CCCCN)C(=O)N[C@@H](Cc1ccc(O)cc1)C(=O)N[C@@H](CC(C)C)C(=O)N[C@@H](CC(=O)O)C(=O)N[C@@H](CCC(=O)O)C(=O)N[C@@H](CCCNC(=N)N)C(=O)N[C@@H](C)C(=O)N[C@@H](C)C(=O)N[C@@H](CCC(N)=O)C(=O)N[C@@H](CC(=O)O)C(=O)N[C@@H](Cc1ccccc1)C(=O)N[C@H](C(=O)N[C@@H](CCC(N)=O)C(=O)N[C@@H](Cc1c[nH]c2ccccc12)C(=O)N[C@@H](CC(C)C)C(=O)N[C@@H](CC(C)C)C(=O)N[C@@H](CC(=O)O)C(=O)NCC(=O)NCC(=O)N1CCC[C@H]1C(=O)N[C@@H](CO)C(=O)N[C@@H](CO)C(=O)NCC(=O)N[C@@H](C)C(=O)N1CCC[C@H]1C(=O)N1CCC[C@H]1C(=O)N1CCC[C@H]1C(=O)N[C@@H](CO)C(N)=O)C(C)C)C(=O)O [Peptide 20] | 0.0123 | 100 ± 1.62 | 12.29 ± 1.02 | 9.12 | –
2 | CC[C@H](C)[C@H](NC(=O)[C@H](CC(C)C)NC(=O)[C@H](Cc1c[nH]c2ccccc12)NC(=O)[C@H](CCC(N)=O)NC(=O)[C@@H](NC(=O)[C@H](Cc1ccccc1)NC(=O)[C@H](C)NC(=O)[C@H](CCCCNC(=O)COCCOCCNC(=O)COCCOCCNC(=O)CC[C@H](NC(=O)CCCCCCCCCCCCCCCCCCC(=O)O)C(=O)O)NC(=O)[C@H](CCC(N)=O)NC(=O)[C@H](C)NC(=O)[C@@H](NC(=O)[C@H](CCCCN)NC(=O)[C@H](CC(=O)O)NC(=O)[C@H](CC(C)C)NC(=O)C(C)(C)NC(=O)[C@@H](NC(=O)[C@H](CO)NC(=O)[C@H](Cc1ccc(O)cc1)NC(=O)[C@H](CC(=O)O)NC(=O)[C@H](CO)NC(=O)[C@@H](NC(=O)[C@H](Cc1ccccc1)NC(=O)[C@@H](NC(=O)CNC(=O)[C@H](CCC(=O)O)NC(=O)C(C)(C)NC(=O)[C@@H](N)Cc1ccc(O)cc1)[C@@H](C)O)[C@@H](C)O)[C@@H](C)CC)[C@@H](C)CC)C(C)C)C(=O)N[C@@H](C)C(=O)NCC(=O)NCC(=O)N1CCC[C@H]1C(=O)N[C@@H](CO)C(=O)N[C@@H](CO)C(=O)NCC(=O)N[C@@H](C)C(=O)N1CCC[C@H]1C(=O)N1CCC[C@H]1C(=O)N1CCC[C@H]1C(=O)N[C@@H](CO)C(N)=O [Tirzepatide] | 0.0589 | – | – | – | N.B.
